Substitutions are numbered along the chain they refer to. Like-named read-outs stand apart in the source and are kept apart here.
Assays:
Format in all cases: cell-based
BGT1 = target: T1, BGT1 (Homo sapiens, UniProt P48065); test: FLIPR membrane potential (FMP) assay, CHO cells stably expressing BGT1; conditions: for Kb: Gaddum-Schild analysis; for Inhibitor activity: in the presence of GABA EC50 concentration ([…] µM); for Substrate activity (translocation by BGT1): tested as substrates, without GABA
T1 construct: expressed in transfected cells
T1 sequence (P48065 1-614): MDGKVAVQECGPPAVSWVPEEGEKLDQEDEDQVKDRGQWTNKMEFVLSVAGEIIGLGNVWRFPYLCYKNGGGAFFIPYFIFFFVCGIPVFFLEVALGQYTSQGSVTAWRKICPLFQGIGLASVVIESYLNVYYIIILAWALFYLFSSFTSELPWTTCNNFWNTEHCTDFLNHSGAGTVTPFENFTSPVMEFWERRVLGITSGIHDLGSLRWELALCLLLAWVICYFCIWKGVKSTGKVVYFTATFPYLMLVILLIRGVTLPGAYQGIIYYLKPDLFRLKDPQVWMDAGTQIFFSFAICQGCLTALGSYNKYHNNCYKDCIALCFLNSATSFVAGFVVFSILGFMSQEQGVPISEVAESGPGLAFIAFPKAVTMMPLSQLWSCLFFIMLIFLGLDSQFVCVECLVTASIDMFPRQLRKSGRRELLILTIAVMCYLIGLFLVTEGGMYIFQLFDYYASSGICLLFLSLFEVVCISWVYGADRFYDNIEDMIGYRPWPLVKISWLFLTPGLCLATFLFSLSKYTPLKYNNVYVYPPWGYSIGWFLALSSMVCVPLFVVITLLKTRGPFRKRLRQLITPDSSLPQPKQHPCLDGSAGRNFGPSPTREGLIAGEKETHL

BGT1 E52A + Q299L = target: T2, BGT1 E52A + Q299L (Homo sapiens, UniProt P48065, E52A/Q299L); test: [3H]GABA uptake assay, transient expression in tsA201 cells; conditions: for IC50: BGT1 E52A + Q299L, tsA201 cells (2: only n = 2)
T2 construct: expressed in transfected cells; host or cells: tsA201 (transformed HEK293), transient
T2 sequence (P48065 1-614 E52A/Q299L): T1 sequence (P48065 1-614) with E52A, Q299L
Method: (§1) The residue Q299 in human BGT1 corresponds to leucine in all other GATs (human, rat, mouse), while E52 corresponds to tyrosine in GAT1 (human, rat, mouse) but is conserved among GAT2, GAT3 and BGT1 (human, rat, mouse) (Figure 6A) ([Kickinger et al., 2019]).
(§2) The tsA201 cell line (a transformed HEK293 cell line), the Flp-In CHO cell lines stably expressing human (h) GATs and the HEK293 cell line stably expressing human α1β2γ2 GABAA receptors have been described previously and were cultured accordingly ([Al-Khawaja et al., 2014]; [Falk-Petersen et al., 2020]). The tsA201 cell line used for transient expression of hGATs was transfected with DNA constructs (8 μg per 10 cm plate) using 40 μL PolyFect transfection reagent according to the manufacturer’s protocol (Qiagen).
(§3) Briefly, cells were seeded in white 96-well plates (White Opaque Tissue Culture (TC) plated 96-well Microplate) pre-coated with PDL. Medium was removed on the following day and cells washed with 100 µL/well assay buffer (HBSS supplemented with 20 mM HEPES, 1 mM CaCl2 and 1 mM MgCl2, pH 7.4). […] The cells were washed 3 times with 100 µL/well ice-cold assay buffer, 150 µL/well MicroScint™20 was subsequently added before the plate was shaken for at least 1 h. The plate was counted in a Packard TopCounter microplate scintillation counter (PerkinElmer) for 3 min per well. […] Data presented is the pooled data of at least three independent experiments with three technical replicates if not stated otherwise in figure legends. Concentration–response curves were fitted by non-linear regression to the sigmoidal concentration-response model with GraphPad Prism (version 9.0.0, GraphPad Software, San Diego, CA, United States) as described ([Lie et al., 2020]).

BGT1 E52A = target: T3, BGT1 E52A (Homo sapiens, UniProt P48065, E52A); test: as above; conditions: for IC50: BGT1 E52A; for Increase in activity compared to wildtype: BGT1 E52A vs BGT1 wt
T3 construct: expressed in transfected cells; host or cells: tsA201 (transformed HEK293), transient
T3 sequence (P48065 1-614 E52A): T1 sequence (P48065 1-614) with E52A
Method: as §1, §2, §3

| Kb (BGT1; n = 4, read-out: KB) | Kb (BGT1; read-out: pKB (converted)) | Preference for BGT1 over α1β2γ2 GABAA receptors (BGT1; according to the FMP data) | Schild slope (Gaddum-Schild analysis) (BGT1; co-applied with increasing concentrations of GABA, n = 4) | Inhibitor activity (BGT1) | Substrate activity (translocation by BGT1) (BGT1) | IC50 (BGT1 E52A + Q299L; read-out: IC50) | Decrease in inhibitory activity compared to wildtype (BGT1 E52A + Q299L; BGT1 Q299L + E52A vs BGT1 wt) | IC50 (BGT1 E52A) | Increase in activity compared to wildtype (BGT1 E52A) | IC50 (BGT1 E52A; tsA201 cells) | IC50 (BGT1 E52A + Q299L; read-out: pIC50 ± S.E.M. (converted)) | SMILES |
| --- | --- | --- | --- | --- | --- | --- | --- | --- | --- | --- | --- | --- |
| 470 nM | 398 nM | 13 times | 1.02 | behaved as inhibitors | no increase in fluorescence signals | 41000 nM | 27 times | ~40 nM | 38 times | 40 nM |  | N[C@@]12CC[C@H](C(=O)O)[C@@H]1C2 [bicyclo-GABA, (1S,2S,5R)-5-aminobicyclo[3.1.0]hexane-2-carboxylic acid] |
|  |  |  |  | behaved as inhibitors | no increase in fluorescence signals | 44000 nM |  |  | 82 times | 120 nM | 31600 nM | CN[C@@]12CC[C@H](C(=O)O)[C@@H]1C2 [compound 2] |

From article PMC8476755 (Frontiers in Chemistry, 2021)
